7 compounds from patent US20120156314A1, “11 beta, 13-DIHYDROHELENALIN DERIVATIVES AND USES THEREOF AS BOMBESIN RECEPTOR SUBTYPE 3 AGNOISTS” (VIOGENE-BIOTEK CORPORATION, priority 2010, published 2012) can be followed below.

Like-named read-outs stand apart in the source and are kept apart here.

The target in one assay is T1, human BRS3 (Homo sapiens, UniProt P32247).
T1 construct: expressed in transfected cells; host or cells: U2OS
T1 sequence (P32247 1-399): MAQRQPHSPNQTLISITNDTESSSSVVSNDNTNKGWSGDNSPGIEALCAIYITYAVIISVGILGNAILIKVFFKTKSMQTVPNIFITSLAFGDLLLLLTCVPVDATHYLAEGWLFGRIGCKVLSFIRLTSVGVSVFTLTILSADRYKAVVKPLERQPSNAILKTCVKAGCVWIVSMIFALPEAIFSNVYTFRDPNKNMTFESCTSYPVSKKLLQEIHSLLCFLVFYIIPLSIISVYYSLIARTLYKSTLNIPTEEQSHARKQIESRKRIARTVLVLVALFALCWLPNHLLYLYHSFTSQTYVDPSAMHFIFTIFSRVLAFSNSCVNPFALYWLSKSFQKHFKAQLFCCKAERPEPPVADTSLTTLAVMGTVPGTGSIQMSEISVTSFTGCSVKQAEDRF
Nature of the assay: Cytosolic Ca++ mobilization assay in U2OS cells expressing BRS3. The class given is cell-based. The following applies: for magnitude of released calcium and time to reach the peak of the transient: dose response. The procedure:
Fluorescence was measured at dual excitation wavelengths of 340 nm and 380 nm, using an emission wavelength of 510 nm. Autofluorescence was corrected for by running a sample of unlabeled cells in identical experimental conditions.

The target in the next assay is BRS3 (Homo sapiens, UniProt P32247). Put plainly: cell-based.
The subject of assay [1] is U2OS cells that does not express BRS3. The protocol: After two washes with assay buffer, 2 ml of cell suspension were placed in a Delta PTI Scan 1 spectrofluorimeter (Photon Technology International, South Brunswick, N.J.) equipped with a stir bar and water bath (37° C.). Fluorescence was measured at dual excitation wavelengths of 340 nm and 380 nm, using an emission wavelength of 510 nm. Autofluorescence was corrected for by running a sample of unlabeled cells in identical experimental conditions.

The next assay has as its target GRPR (Homo sapiens, UniProt P30550). Put plainly: cell-based. To be noted: Table 6.
The next assay concerns the target NMBR (Homo sapiens, UniProt P28336). Nature of the assay: cell-based. To be noted: Table 6.
Setting [2] is: Table 5, U2OS cells expressing human BRS3, read-out: EC50 Ca++.

NMBR, sequence (P28336 whole entry, species assumed): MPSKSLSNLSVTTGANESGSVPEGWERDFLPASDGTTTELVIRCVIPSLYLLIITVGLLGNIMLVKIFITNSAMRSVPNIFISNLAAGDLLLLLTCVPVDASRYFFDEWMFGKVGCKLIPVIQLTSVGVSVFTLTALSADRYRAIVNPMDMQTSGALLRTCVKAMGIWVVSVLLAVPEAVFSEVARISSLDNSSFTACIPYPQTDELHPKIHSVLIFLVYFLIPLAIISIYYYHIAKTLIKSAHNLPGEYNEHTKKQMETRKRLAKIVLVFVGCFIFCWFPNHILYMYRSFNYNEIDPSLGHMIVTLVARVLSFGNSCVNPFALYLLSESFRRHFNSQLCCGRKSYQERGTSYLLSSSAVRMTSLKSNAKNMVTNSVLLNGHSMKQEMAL
GRPR, sequence (P30550 whole entry, species assumed): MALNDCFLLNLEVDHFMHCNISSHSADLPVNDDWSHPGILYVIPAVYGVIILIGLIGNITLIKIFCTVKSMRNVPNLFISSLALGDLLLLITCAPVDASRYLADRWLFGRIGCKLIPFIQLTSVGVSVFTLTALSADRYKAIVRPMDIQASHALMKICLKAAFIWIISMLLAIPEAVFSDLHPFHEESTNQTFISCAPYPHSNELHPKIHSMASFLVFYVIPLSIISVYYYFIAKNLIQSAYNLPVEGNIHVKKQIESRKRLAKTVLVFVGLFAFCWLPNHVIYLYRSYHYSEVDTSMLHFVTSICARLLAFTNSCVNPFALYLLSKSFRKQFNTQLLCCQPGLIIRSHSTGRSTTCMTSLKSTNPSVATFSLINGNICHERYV

As a reminder, the EC50 is the concentration needed to bring the measured effect to its halfway point. In the case of `C=C(C)C(=O)O[C@H]1[C@H]2[C@@H](C[C@@H](C)[C@@H]3C=CC(=O)[C@]31C)OC(=O)[C@@H]2C` [Compound 1, Arnicolide D], the EC50 on human BRS3 stood at 10 µM; at BRS3 (EC50 Arrestin, Table 5), 2.8 µM.

In the case of `CC(C)C(=O)O[C@H]1[C@H]2[C@@H](C[C@@H](C)[C@@H]3C=CC(=O)[C@]31C)OC(=O)[C@@H]2C` [Compound 2, Arnicolide C], the EC50 on human BRS3 is 12 µM; at BRS3 (EC50 Arrestin, Table 5) it was 2.8 µM.

`CC=C(C)C(=O)OC1C2C(CC(C)C3C=CC(=O)C31C)OC(=O)C2C` (centres unmarked) [Compound 3, Microhelenin C]: the EC50 worked out at 11 µM at human BRS3 and 2 µM on BRS3 (EC50 Arrestin, Table 5).

On to `CCC(C)C(=O)O[C@H]1[C@H]2[C@@H](C[C@@H](C)C3C=CC(=O)[C@]31C)OC(=O)[C@@H]2C` (some centres unmarked) [Compound 4, Microhelenin B], for which the EC50 is 4.2 µM on human BRS3; 2.35 µM at BRS3 (EC50 Arrestin, Table 5); 3.73 µM on BRS3 (EC50 BRS3, Table 6); > 861 µM at GRPR; > 861 µM at NMBR. Moreover, the “time of return of cytosolic calcium to basal levels” value on human BRS3 (6.8 μg/ml) amounted to 1 min. In addition, the “time to maximal level of cytosolic calcium” value on human BRS3 (6.8 μg/ml) came out at 13 s. In addition, the “magnitude of released calcium and time to reach the peak of the transient” value (from here on “magnitude of released calcium and time”) at human BRS3 is “concentration-dependent and saturable”. In assay [1], the “cytosolic Ca++ release in cells without BRS3” value is reported as “not able to stimulated cytosolic Ca^++ release”.

`CC(C)CC(=O)O[C@H]1[C@H]2[C@@H](C[C@@H](C)[C@@H]3C=CC(=O)[C@]31C)OC(=O)[C@@H]2C` [Compound 5, Arnicolide B]: the EC50 on human BRS3 is 20 µM; at BRS3 (EC50 Arrestin, Table 5), 7.5 µM.

As to `CCC(C)C(=O)O[C@H]1[C@@H]2[C@H](C)C(=O)O[C@@H]2C[C@@H](C)C2[C@@H](O)CC(=O)[C@]21C` (some centres unmarked) [Compound A, arnifoline], the 50% effective concentration (EC50) on human BRS3 (setting [2]) is 2.6 µM; on BRS3 (EC50 Arrestin, Table 5), 2.7 µM; at BRS3 (EC50 BRS3, Table 6), 2.73 µM; on GRPR, > 1360 µM; at NMBR, > 1360 µM. Also, on human BRS3, the “magnitude of released calcium and time” value is “concentration-dependent and saturable”.

Regarding `CCC(C)C(=O)O[C@H]1[C@@H]2[C@H](C)C(=O)O[C@@H]2C[C@@H](C)C2[C@@H](C)CC(=O)[C@]21C` (stereo partly drawn) [Compound B, 11α-13-dihydroarnifolin B], the “time of return of cytosolic calcium to basal levels” value on human BRS3 (25 μg/ml) is 1 min. Also, the “time to maximal level of cytosolic calcium” value on human BRS3 (25 μg/ml) was 13 s. For the same compound, the 50% effective concentration (EC50) at human BRS3 (setting [2]) is 9.6 µM; at BRS3 (EC50 Arrestin, Table 5), 14 µM; at BRS3 (EC50 BRS3, Table 6), 13.7 µM; at GRPR, > 686 µM; at NMBR, > 823 µM. At human BRS3, the “magnitude of released calcium and time” value was “concentration-dependent and saturable”. Further, the “cytosolic Ca++ release in cells without BRS3” value in assay [1] is given as “not able to stimulated cytosolic Ca^++ release”.
